Results taken from patent US20080009418A1, “Selective Inhibitors” (Alchemia LTD., priority 2004, published 2008).

What was measured:
Conditions in all cases: compound at 10 μM
Human δ-opioid (DOP) = biological target: T1, Human δ-opioid (DOP) (Homo sapiens, UniProt P41143); assay: Radioligand binding, human δ-opioid (DOP) membranes, FlashPlate, [3H]-Bremazocine
T1 construct: purchased Perkin Elmer Biosignal
Summary of the method: (§1)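 Cloned human receptor membranes were coated onto FlashPlate wells and incubated with radioligand and compound (added from a 0.5 mM DMSO daughter plate) for 1 hour at room temperature in the dark. Scintillation counting gave percent inhibition, with DMSO defining total and reference ligand defining non-specific binding.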

Human κ-Opioid (KOP) = biological target: T2, Human κ-Opioid (KOP) (Homo sapiens, UniProt P41145); assay: Radioligand binding, human κ-opioid (KOP) membranes, filtration, [3H]-Diprenorphine
T2 construct: purchased Perkin Elmer Biosignal
Summary of the method: (§2)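 Percent inhibition of radioligand binding measured on recombinant human membranes: NK1 with [125I]-Substance P, KOP with [3H]-Diprenorphine. Incubation 1 h at room temperature, then harvest onto 0.3% PEI-soaked filters, cold Tris-HCl pH 7.4 washes and scintillation counting; non-specific binding from reference ligand wells.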

Human Melanocortin (MC3) = biological target: T3, Human Melanocortin (MC3) (Homo sapiens, UniProt P41968); assay: Radioligand binding, human melanocortin MC3 membranes, FlashPlate, [125I]-NDP-αMSH
T3 construct: purchased Perkin Elmer Biosignal
Summary of the method: as §1

Human Melanocortin (MC4) = biological target: T4, Human Melanocortin (MC4) (Homo sapiens, UniProt P32245); assay: Radioligand binding, human melanocortin MC4 membranes, FlashPlate, [125I]-NDP-αMSH
T4 construct: purchased Perkin Elmer Biosignal
Summary of the method: as §1

Human melanocortin (MC5) = biological target: T5, Human melanocortin (MC5) (Homo sapiens, UniProt P33032); assay: Radioligand binding, human melanocortin MC5 membranes, FlashPlate, [125I]-NDP-αMSH
T5 construct: purchased Perkin Elmer Biosignal
Summary of the method: as §1

[1] = biological target: T6, Human melanin-concentrating hormone (MCH1) (Homo sapiens, UniProt Q99705); assay: Radioligand binding, human melanin-concentrating hormone MCH1 membranes, FlashPlate, [125I]-S36057
T6 construct: purchased Perkin Elmer Biosignal
Summary of the method: as §1

Human μ-opioid (MOP) = biological target: T7, Human μ-opioid (MOP) (Homo sapiens, UniProt P35372); assay: Radioligand binding, human μ-opioid (MOP) membranes, FlashPlate, [3H]-Naloxone
T7 construct: purchased Perkin Elmer Biosignal
Summary of the method: as §1

Human neurokinin (NK1) = biological target: T8, Human neurokinin (NK1) (Homo sapiens, UniProt P25103); assay: Radioligand binding, human neurokinin NK1 membranes, filtration, [125I]-Substance P
T8 construct: purchased Perkin Elmer Biosignal
Summary of the method: as §2

[2] = biological target: T9, Human neuropeptide Y (NPY-Y1) (Homo sapiens, UniProt P25929); assay: Radioligand binding, human neuropeptide Y NPY-Y1 membranes, FlashPlate, [125I]-PYY
T9 construct: purchased Perkin Elmer Biosignal
T9 sequence (P25929 1-384): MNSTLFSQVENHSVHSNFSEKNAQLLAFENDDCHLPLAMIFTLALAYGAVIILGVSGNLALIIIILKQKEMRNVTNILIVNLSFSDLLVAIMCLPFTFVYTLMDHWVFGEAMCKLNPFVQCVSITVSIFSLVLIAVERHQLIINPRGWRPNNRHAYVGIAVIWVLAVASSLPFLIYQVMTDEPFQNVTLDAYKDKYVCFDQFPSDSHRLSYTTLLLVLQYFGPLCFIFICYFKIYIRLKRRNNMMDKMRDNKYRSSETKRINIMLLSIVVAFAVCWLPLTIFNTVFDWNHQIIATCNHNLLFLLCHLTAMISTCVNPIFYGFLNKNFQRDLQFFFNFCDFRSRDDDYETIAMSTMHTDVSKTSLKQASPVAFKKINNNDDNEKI
Summary of the method: as §1

Human opioid (ORL1) = biological target: T10, Human opioid (ORL1) (Homo sapiens, UniProt P41146); assay: Radioligand binding, human opioid ORL1 membranes, FlashPlate, [125I]-Nociceptin
T10 construct: purchased Perkin Elmer Biosignal
Summary of the method: as §1

Mouse urotensin (mUR2) = biological target: T11, Mouse urotensin (mUR2) (Mus musculus, UniProt Q8VIH9); assay: Radioligand binding, mouse urotensin mUR2 membranes, FlashPlate, [125I]-Urotensin II
T11 construct: purchased Perkin Elmer Biosignal
T11 sequence (Q8VIH9 1-385): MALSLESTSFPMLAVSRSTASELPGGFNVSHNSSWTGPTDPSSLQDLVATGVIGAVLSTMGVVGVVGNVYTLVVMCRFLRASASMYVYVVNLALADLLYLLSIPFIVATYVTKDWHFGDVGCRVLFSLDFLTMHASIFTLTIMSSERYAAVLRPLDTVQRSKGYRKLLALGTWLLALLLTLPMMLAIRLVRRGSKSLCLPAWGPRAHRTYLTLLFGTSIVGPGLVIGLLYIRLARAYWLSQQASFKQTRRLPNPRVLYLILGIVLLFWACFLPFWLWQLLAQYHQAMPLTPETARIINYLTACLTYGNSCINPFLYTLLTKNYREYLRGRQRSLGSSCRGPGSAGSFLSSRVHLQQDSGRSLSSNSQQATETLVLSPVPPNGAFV
Summary of the method: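 Cloned mouse urotensin (mUR2) receptor membranes from Perkin Elmer Biosignal were immobilized in FlashPlate microplates using a proprietary coating. Each well got 19.5 μl buffer, then 0.5 μl of DMSO, reference ligand, or compound. Adding 5 μl of [125I]-Urotensin II, diluted to 5× final concentration in binding buffer, started binding. Plates were sealed with TopSeal-A and incubated 1 hour at room temperature in the dark. Wells were counted for 30 seconds each on a TopCount after a 60-second delay, and percentage inhibition was calculated.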

T4 sequence (P32245 whole entry): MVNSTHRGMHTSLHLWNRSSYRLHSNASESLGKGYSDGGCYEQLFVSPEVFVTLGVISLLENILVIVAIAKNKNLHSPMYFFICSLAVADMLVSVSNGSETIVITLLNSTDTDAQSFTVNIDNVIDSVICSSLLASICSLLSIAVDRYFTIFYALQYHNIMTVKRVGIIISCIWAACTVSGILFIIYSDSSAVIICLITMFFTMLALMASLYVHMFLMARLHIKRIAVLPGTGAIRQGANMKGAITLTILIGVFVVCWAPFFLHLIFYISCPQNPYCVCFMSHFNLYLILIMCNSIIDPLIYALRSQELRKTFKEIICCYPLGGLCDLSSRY
T1 sequence (P41143 whole entry): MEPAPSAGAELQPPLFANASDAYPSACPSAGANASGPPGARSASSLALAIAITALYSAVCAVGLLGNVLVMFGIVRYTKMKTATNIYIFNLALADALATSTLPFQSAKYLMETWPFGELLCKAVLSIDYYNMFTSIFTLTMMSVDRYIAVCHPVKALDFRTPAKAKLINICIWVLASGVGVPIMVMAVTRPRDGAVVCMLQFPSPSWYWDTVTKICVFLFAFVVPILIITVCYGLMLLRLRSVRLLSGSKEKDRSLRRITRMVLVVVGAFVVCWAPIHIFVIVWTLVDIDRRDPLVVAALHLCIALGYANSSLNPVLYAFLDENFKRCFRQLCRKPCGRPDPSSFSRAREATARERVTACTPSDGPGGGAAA
T7 sequence (P35372 whole entry): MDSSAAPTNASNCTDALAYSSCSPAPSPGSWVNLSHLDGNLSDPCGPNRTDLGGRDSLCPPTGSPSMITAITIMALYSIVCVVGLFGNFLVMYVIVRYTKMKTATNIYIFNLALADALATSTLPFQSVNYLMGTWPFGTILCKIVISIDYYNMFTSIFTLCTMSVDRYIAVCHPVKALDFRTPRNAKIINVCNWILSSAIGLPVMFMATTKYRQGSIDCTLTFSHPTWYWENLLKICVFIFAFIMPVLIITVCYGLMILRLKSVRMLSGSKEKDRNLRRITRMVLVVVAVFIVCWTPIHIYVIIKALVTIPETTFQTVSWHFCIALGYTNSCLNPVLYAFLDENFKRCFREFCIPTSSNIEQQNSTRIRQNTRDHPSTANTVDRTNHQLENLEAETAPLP
T2 sequence (P41145 whole entry): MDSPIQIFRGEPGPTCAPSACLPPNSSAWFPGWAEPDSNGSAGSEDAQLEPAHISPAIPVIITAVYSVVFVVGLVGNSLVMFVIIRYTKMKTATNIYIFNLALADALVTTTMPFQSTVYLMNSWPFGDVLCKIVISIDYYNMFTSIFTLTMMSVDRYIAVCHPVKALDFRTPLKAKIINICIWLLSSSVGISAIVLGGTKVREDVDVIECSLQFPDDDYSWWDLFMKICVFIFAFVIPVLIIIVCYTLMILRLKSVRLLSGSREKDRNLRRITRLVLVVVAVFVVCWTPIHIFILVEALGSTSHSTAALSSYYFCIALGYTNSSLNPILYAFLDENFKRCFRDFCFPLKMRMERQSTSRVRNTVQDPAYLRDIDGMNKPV
T6 sequence (Q99705 whole entry): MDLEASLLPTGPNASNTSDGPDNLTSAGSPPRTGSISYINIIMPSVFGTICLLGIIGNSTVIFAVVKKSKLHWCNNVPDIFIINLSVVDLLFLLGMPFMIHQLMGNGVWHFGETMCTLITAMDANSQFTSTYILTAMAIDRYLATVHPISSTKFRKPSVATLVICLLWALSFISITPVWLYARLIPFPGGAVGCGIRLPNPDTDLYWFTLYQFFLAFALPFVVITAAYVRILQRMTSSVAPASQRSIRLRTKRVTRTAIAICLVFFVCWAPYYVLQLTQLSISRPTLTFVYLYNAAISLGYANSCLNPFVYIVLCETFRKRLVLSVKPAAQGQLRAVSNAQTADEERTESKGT
T5 sequence (P33032 whole entry): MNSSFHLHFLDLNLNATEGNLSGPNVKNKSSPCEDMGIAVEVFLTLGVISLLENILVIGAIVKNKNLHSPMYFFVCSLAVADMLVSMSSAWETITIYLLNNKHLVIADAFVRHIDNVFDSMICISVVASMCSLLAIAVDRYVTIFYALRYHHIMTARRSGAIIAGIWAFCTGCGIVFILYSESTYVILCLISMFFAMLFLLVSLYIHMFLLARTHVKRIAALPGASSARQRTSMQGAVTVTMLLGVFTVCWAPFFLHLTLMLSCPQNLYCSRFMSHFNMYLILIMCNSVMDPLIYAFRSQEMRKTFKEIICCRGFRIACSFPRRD
T8 sequence (P25103 whole entry): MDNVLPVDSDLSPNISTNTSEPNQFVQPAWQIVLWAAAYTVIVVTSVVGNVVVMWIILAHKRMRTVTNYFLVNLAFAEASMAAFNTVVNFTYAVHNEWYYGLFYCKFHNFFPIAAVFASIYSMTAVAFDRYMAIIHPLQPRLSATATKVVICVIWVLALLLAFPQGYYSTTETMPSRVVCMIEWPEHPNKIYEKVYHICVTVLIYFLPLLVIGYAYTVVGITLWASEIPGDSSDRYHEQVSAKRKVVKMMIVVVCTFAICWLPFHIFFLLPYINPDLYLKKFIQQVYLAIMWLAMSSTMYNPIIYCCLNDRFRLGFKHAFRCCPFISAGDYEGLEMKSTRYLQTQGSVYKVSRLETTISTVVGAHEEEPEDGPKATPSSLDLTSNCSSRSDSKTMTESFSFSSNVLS
T3 sequence (P41968 whole entry): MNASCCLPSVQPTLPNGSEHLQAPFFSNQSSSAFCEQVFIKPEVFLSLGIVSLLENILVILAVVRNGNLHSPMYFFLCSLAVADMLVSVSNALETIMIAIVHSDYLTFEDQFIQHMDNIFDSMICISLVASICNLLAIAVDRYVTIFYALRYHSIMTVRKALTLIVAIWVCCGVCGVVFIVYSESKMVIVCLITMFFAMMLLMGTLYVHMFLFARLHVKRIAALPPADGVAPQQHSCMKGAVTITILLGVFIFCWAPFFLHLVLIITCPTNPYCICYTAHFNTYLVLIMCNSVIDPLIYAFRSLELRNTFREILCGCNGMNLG
T10 sequence (P41146 whole entry): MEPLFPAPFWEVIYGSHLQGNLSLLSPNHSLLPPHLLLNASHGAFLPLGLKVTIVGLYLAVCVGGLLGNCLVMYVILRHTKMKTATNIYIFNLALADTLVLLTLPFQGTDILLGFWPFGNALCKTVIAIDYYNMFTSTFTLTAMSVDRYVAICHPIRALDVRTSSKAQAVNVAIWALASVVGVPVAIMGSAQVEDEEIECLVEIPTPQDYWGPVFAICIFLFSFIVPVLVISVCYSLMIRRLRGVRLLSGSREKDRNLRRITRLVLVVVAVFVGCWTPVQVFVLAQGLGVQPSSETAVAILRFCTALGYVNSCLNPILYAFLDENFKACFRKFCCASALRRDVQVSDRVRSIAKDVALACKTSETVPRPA

N=C(N)NCCC(=O)NC1C(OCc2ccc(Cl)cc2)OC(COCc2ccc3ccccc3c2)C(O)C1OCc1ccc(-c2ccccc2)cc1 (stereo not drawn) [compound 432]
A1: inhibition of radioligand binding (Human δ-opioid (DOP); [3H]-Bremazocine, human DOP membranes): − (“−” indicates less than 50% inhibition at 10 μM) | A2: inhibition of radioligand binding (Human κ-Opioid (KOP); [3H]-Diprenorphine, human KOP membranes): − (“−” indicates less than 50% inhibition at 10 μM) | A3: inhibition of radioligand binding (Human Melanocortin (MC3); [125I]-NDP-αMSH, human MC3 membranes): + (“+” indicates greater than 50% inhibition at 10 μM) | A4: inhibition of radioligand binding (Human Melanocortin (MC4); [125I]-NDP-αMSH, human MC4 membranes): + (“+” indicates greater than 50% inhibition at 10 μM) | A5: inhibition of radioligand binding (Human melanocortin (MC5); [125I]-NDP-αMSH, human MC5 membranes): + (“+” indicates greater than 50% inhibition at 10 μM) | A6: inhibition of radioligand binding ([1]; [125I]-S36057, human MCH1 membranes): + (“+” indicates greater than 50% inhibition at 10 μM) | A7: inhibition of radioligand binding (Human μ-opioid (MOP); [3H]-Naloxone, human MOP membranes): − (“−” indicates less than 50% inhibition at 10 μM) | A8: inhibition of radioligand binding (Human neurokinin (NK1); [125I]-Substance P, human NK1 membranes): + (“+” indicates greater than 50% inhibition at 10 μM) | A9: inhibition of radioligand binding ([2]; [125I]-PYY, human NPY-Y1 membranes): − (“−” indicates less than 50% inhibition at 10 μM) | A10: inhibition of radioligand binding (Human opioid (ORL1); [125I]-Nociceptin, human ORL1 membranes): − (“−” indicates less than 50% inhibition at 10 μM) | A11: inhibition of radioligand binding (Mouse urotensin (mUR2); [125I]-Urotensin II, mouse mUR2 membranes): − (“−” indicates less than 50% inhibition at 10 μM)

COC[C@H]1OC(OCCc2ccccc2)[C@H](NC(=O)CCCNC(=N)N)[C@@H](OCc2ccc(-c3ccccc3)cc2)[C@@H]1O (stereo partly drawn) [compound 43]
A1 radioligand binding inhibition (Human δ-opioid (DOP); human δ-opioid (DOP) membranes): − (“−” indicates less than 50% inhibition at 10 μM) | A2 radioligand binding inhibition (Human κ-Opioid (KOP); human κ-opioid (KOP) membranes): + (“+” indicates greater than 50% inhibition at 10 μM) | A3 radioligand binding inhibition (Human Melanocortin (MC3); human melanocortin MC3 membranes): + (“+” indicates greater than 50% inhibition at 10 μM) | A4 radioligand binding inhibition (Human Melanocortin (MC4); human melanocortin MC4 membranes): + (“+” indicates greater than 50% inhibition at 10 μM) | A5 radioligand binding inhibition (Human melanocortin (MC5); human melanocortin MC5 membranes): + (“+” indicates greater than 50% inhibition at 10 μM) | A6 radioligand binding inhibition ([1]; human MCH1 membranes): + (“+” indicates greater than 50% inhibition at 10 μM) | A7 radioligand binding inhibition (Human μ-opioid (MOP); human μ-opioid (MOP) membranes): + (“+” indicates greater than 50% inhibition at 10 μM) | A8 radioligand binding inhibition (Human neurokinin (NK1); human neurokinin NK1 membranes): + (“+” indicates greater than 50% inhibition at 10 μM) | A9 radioligand binding inhibition ([2]; human NPY-Y1 membranes): − (“−” indicates less than 50% inhibition at 10 μM) | A10 radioligand binding inhibition (Human opioid (ORL1); human ORL1 membranes): − (“−” indicates less than 50% inhibition at 10 μM) | A11 radioligand binding inhibition (Mouse urotensin (mUR2); mouse urotensin mUR2 membranes): − (“−” indicates less than 50% inhibition at 10 μM)

CO[C@H]1[C@H](O)[C@@H](COCc2cccc(O)c2)OC(OCc2ccc(-c3ccccc3)cc2)[C@@H]1NC(=O)CCCNC(=N)N (stereo partly drawn) [compound 149]
A1 radioligand binding, percentage inhibition (Human δ-opioid (DOP); [3H]-Bremazocine): − (“−” indicates less than 50% inhibition at 10 μM) | A2 radioligand binding, percentage inhibition (Human κ-Opioid (KOP); [3H]-Diprenorphine): − (“−” indicates less than 50% inhibition at 10 μM) | A3 radioligand binding, percentage inhibition (Human Melanocortin (MC3); [125I]-NDP-αMSH): − (“−” indicates less than 50% inhibition at 10 μM) | A4 radioligand binding, percentage inhibition (Human Melanocortin (MC4); [125I]-NDP-αMSH): − (“−” indicates less than 50% inhibition at 10 μM) | A5 radioligand binding, percentage inhibition (Human melanocortin (MC5); [125I]-NDP-αMSH): − (“−” indicates less than 50% inhibition at 10 μM) | A6 radioligand binding, percentage inhibition ([1]; [125I]-S36057): − (“−” indicates less than 50% inhibition at 10 μM) | A7 radioligand binding, percentage inhibition (Human μ-opioid (MOP); [3H]-Naloxone): + (“+” indicates greater than 50% inhibition at 10 μM) | A8 radioligand binding, percentage inhibition (Human neurokinin (NK1); [125I]-Substance P): + (“+” indicates greater than 50% inhibition at 10 μM) | A9 radioligand binding, percentage inhibition ([2]; [125I]-PYY): − (“−” indicates less than 50% inhibition at 10 μM) | A10 radioligand binding, percentage inhibition (Human opioid (ORL1); [125I]-Nociceptin): − (“−” indicates less than 50% inhibition at 10 μM) | A11 radioligand binding, percentage inhibition (Mouse urotensin (mUR2); [125I]-Urotensin II): − (“−” indicates less than 50% inhibition at 10 μM)
